Test results published in publication PMC9961069 (Metabolites, 2023).

Tests used:
[1] = test system: MCF-7 cells; experiment: Resazurin viability assay with or without folinic acid, MCF-7; assay type: cell-based, Human; conditions: 72 h; for Relative Viability (%) – Inhibitor + FA Treatment: MCF-7, 10 μM + 300 μg/mL folinic acid; for Rescue of viability impairment by folinic acid: MCF-7, 10 μM ± 300 μg/mL FA; for Relative Viability (%) – Inhibitor Alone: MCF-7, 10 μM, relative to DMSO
Protocol: (§1) The incorporation and metabolism of resazurin to resorufin was used to monitor cell viability. MDA-MB-468, MCF7, and MDA-MB-231 cells were grown in 96-well plates with a total of 5000 cells per well in a total volume of 180 μL for 24 h, as described above. After 24 h of growth, cells were treated with increasing concentrations of compounds (0.0457–100 μM) for 72 h. A vehicle control was also performed. […] The volume of treatment added to each well was 20 μL. For folinic acid rescue experiments, 5000 cells were treated with 10 μM compound with or without 300 μg/mL folinic acid (Supelco). After 72 h of treatment, resazurin was added to a final concentration of 44 μM, and cells were incubated for an additional 4 h at 37 °C. The fluorescence of resorufin was monitored on a Synergy MX microplate reader (BioTek) using an excitation wavelength of 540 nm and an emission wavelength of 600 nm. Percent viability relative to the DMSO control was determined. Each treatment was performed in triplicate, and each individual experiment was repeated three times (n = 3).

[2] = test system: MDA-MB-231 cells; experiment: Resazurin viability assay with or without folinic acid, MDA-MB-231; assay type: cell-based, Human; conditions: 72 h; for Relative Viability (%) – Inhibitor + FA Treatment: MDA-MB-231, 10 μM + 300 μg/mL folinic acid; for Relative Viability (%) – Inhibitor Alone: MDA-MB-231, 10 μM, relative to DMSO
Protocol: as §1

[3] = test system: MDA-MB-468 cells; experiment: Resazurin viability assay with or without folinic acid, MDA-MB-468; assay type: cell-based, Human; conditions: 72 h; for Relative Viability (%) – Inhibitor + FA Treatment: MDA-MB-468, 10 μM + 300 μg/mL folinic acid; for Relative Viability (%) – Inhibitor Alone: MDA-MB-468, 10 μM, relative to DMSO
Protocol: as §1

[4] = test system: T1, DHFR in MDA-MB-468 lysates; experiment: Lysate cellular thermal shift assay (CETSA) for DHFR; assay type: binding, Human; conditions: 10 μM, MDA-MB-468 lysate, 45 °C for 3 min; DMSO at 37 °C = 100%
T1 construct: reactions containing 55 μg MDA-MB-468 lysate; endogenous in cells; host or cells: MDA-MB-468
Protocol: Trypsinized MDA-MB-468 cells were harvested by centrifugation at 200× g for 5 min and washed with PBS supplemented with EDTA-free PIC (Roche) and flash frozen for storage at −80 °C. Cells were lysed by resuspension in 60 μL PBS/PIC per 1 × 10^6 cells. Cells were lysed by three freeze-thaw cycles, where cells were frozen in an ethanol/dry ice bath for 3 min, immediately followed by incubation in a 37 °C water bath for 3 min. The insoluble fraction was removed by centrifugation at 20,000× g for 20 min at 4 °C. The supernatant containing the soluble lysate was removed and saved for subsequent steps.
After incubation, each reaction was transferred to a 1.5 mL tube and centrifuged at 20,000× g for 20 min at 4 °C to remove the insoluble proteins. After centrifugation, 18 μL of supernatant was carefully removed from each reaction, without disturbing any pelleted aggregates, and added to 4.5 μL of 5× SDS-PAGE loading buffer. 11 μL of each reaction was loaded onto a gel in duplicate, and proteins were detected by Western blot (as described below). Resulting band densities were fit to the Boltzmann equation to determine the melting temperature (Tm):(3) y=Bottom+Top−Bottom/1+e^Tm−x/Slope
To rescue the thermal degradation of DHFR by inhibitors, samples containing 10 μM inhibitor, 55 μg lysate, and 1% DMSO in a total volume of 28 μL in DHFR buffer were prepared in PCR tubes and incubated at room temperature for 20 min. Two DMSO-only controls were also prepared. Reactions containing inhibitors were then incubated at 45 °C for 3 min. One DMSO-only control was also heated at 45 °C for 3 min, and the other control was heated at 37 °C for 3 min. The soluble protein fraction was separated from the insoluble proteins by centrifugation, and proteins were separated by SDS-PAGE, as described above, and analyzed via Western blot, as described below. Each experiment was repeated 3 times.
Proteins were electrophoretically separated on a 10% gel, and proteins were transferred to a methanol-activated PVDF membrane using the Trans-Blot Turbo transfer system (Bio-Rad) for 7 min at 1.3 A and 25 V in Trans-Blot Turbo transfer buffer (Bio-Rad). Membranes were blocked with 5% skim milk w/v in TBS-T (20 mM Tris, 150 mM NaCl, 0.05% Tween-20) for 1 h at room temperature. […] The horseradish peroxidase (HRP)-linked anti-mouse IgG secondary antibody (NA931, Cytiva; 1:3000) was added for 1 h at room temperature in 5% skim milk w/v in TBS-T. Signal was detected by adding Immobilon Forte Western HRP Substrate (Millipore), and chemiluminescence was captured on a Sapphire Biomolecular Imager (Azure Biosystems). Band densities were determined using ImageJ (Fiji). The band intensity of DHFR was normalized to the thermostable loading control SOD1 [22].

[5] = target: T2, purified human DHFR (Homo sapiens, UniProt P00374); experiment: DHFR enzymatic inhibition assay (NADPH absorbance at 340 nm); assay type: biochemical; conditions: 200 nM DHFR, 137.5 μM DHF, 125 μM NADPH; n = 2; read-out: IC50
T2 construct: made in house; host or cells: E. coli BL21 (DE3) T1R pRARE2, pNIC-Bsa4 plasmid
T2 sequence (P00374 1-187): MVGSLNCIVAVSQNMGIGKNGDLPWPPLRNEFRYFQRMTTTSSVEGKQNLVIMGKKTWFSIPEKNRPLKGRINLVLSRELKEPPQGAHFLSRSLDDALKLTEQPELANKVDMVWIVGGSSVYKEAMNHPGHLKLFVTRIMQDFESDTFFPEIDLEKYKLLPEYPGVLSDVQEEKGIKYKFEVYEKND
Protocol: Working stocks of each inhibitor were created so that the final concentration of DMSO in each reaction was 2% in a final reaction volume of 100 μL. […] Reactions were prepared on ice in 384-well plates. […] Consumption of NADPH by measuring absorbance at 340 nm was used to monitor the progress of the reaction. Readings were taken every 5 min for 1 h at 37 °C using a Synergy MX microplate reader (BioTek).
Percent inhibition relative to the no-inhibitor control was determined using Equation (1). (1) % Inhibition=A340Inhibitor−A340DMSO Control/A340No DHFR−A340DMSO Control×100
Percent inhibition data were then fit to the four-parameter logistic model (Equation (2)) in GraphPad Prism 9.4.1 to determine half-maximal inhibitory concentrations (IC50):(2) y=Bottom+Top−Bottom/1+IC50/x^Hill slope where y represents the percent inhibition, x represents the concentration of inhibitor (μM), the bottom and top represent the bottom and top plateaus, and the Hill slope represents the slope factor. Each experiment contained duplicates of each sample, and each experiment was performed 2 times (n = 2). An ordinary one-way ANOVA was used to test for statistical significance between treatments.

| Compound | Relative Viability (%) – Inhibitor + FA Treatment [1] [%] | Rescue of viability impairment by folinic acid [1] | Relative Viability (%) – Inhibitor Alone [1] [%] | Relative Viability (%) – Inhibitor + FA Treatment [2] [%] | Rescue of viability impairment by folinic acid ([2]; MDA-MB-231, 10 μM ± 300 μg/mL FA) | Relative Viability (%) – Inhibitor Alone [2] [%] | Relative Viability (%) – Inhibitor + FA Treatment [3] [%] | Rescue of viability impairment by folinic acid ([3]; MDA-MB-468, 10 μM ± 300 μg/mL FA) | Relative Viability (%) – Inhibitor Alone [3] [%] | Normalized Band Density (%) of soluble DHFR [4] [%] | IC50 [5] [µM] |
| --- | --- | --- | --- | --- | --- | --- | --- | --- | --- | --- | --- |
| CCS(=O)(=O)O.CN(C)C(=O)c1cccc(COc2ccc(N3C(N)=NC(N)=NC3(C)C)cc2Cl)c1 [compound 139105, triazinate] | 82.83 ± 9.7 | not rescued | 66.53 ± 8.1 | 65.85 ± 13.7 | not rescued | 46.35 ± 9.0 | 81.38 ± 16.9 | statistically significant rescue | 57.09 ± 8.0 | 86.05 ± 21.9 |  |
| CC1(C)N=C(N)N=C(N)N1c1ccc(Cl)c(Cl)c1 [compound 3077] |  | small yet statistically significant rescue |  |  |  |  |  |  |  |  |  |
| CCc1nc(N)nc(N)c1-c1ccc(Cl)c(Cl)c1 [compound 3062, etoprine] | 100.10 ± 8.2 |  | 65.16 ± 9.0 | 65.52 ± 15.0 |  | 52.76 ± 12.1 | 81.08 ± 13.2 |  | 65.38 ± 1.3 | 83.56 ± 52.1 | 8.6 ± 2.7 |
